Assay results: ChEMBL document CHEMBL1201862, “PubChem BioAssay data set” (2004)
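Exposure lasted 48 hours, with cells grown in 96-well plates and compounds tested at five concentrations. Abbreviation: GI50, concentration required for 50% inhibition of growth.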 The source made the active and inactive calls. Cut-off read from the data, not from the text of the source: active = GI50 up to about 1.1 µM and inactive = higher.

Assays:
Assay in all cases: NCI tumour cell line growth inhibition, 48 h
A549 = test system: A549
EKVX = test system: EKVX
HL-60 = test system: HL-60
HOP-62 = test system: HOP-62
IGROV-1 = test system: IGROV-1
K562 = test system: K562
LOX IMVI = test system: LOX IMVI
MOLT-4 = test system: MOLT-4
NCI/ADR-RES = test system: NCI/ADR-RES
OVCAR-4 = test system: OVCAR-4
OVCAR-5 = test system: OVCAR-5
SF-539 = test system: SF-539
SK-MEL-28 = test system: SK-MEL-28
SK-MEL-2 = test system: SK-MEL-2
SK-MEL-5 = test system: SK-MEL-5
SK-OV-3 = test system: SK-OV-3
SN12C = test system: SN12C
SNB-19 = test system: SNB-19
SR = test system: SR
TK-10 = test system: TK-10

| SMILES | GI50 (A549) | GI50 (EKVX) | GI50 (HL-60) | GI50 (HOP-62) | GI50 (IGROV-1) | GI50 (K562) | GI50 (LOX IMVI) | GI50 (MOLT-4) | GI50 (NCI/ADR-RES) | GI50 (OVCAR-4) | GI50 (OVCAR-5) | GI50 (SF-539) | GI50 (SK-MEL-28) | GI50 (SK-MEL-2) | GI50 (SK-MEL-5) | GI50 (SK-OV-3) | GI50 (SN12C) | GI50 (SNB-19) | GI50 (SR) | GI50 (TK-10) |
| --- | --- | --- | --- | --- | --- | --- | --- | --- | --- | --- | --- | --- | --- | --- | --- | --- | --- | --- | --- | --- |
| C1CN(c2nnc(N3CCC3)nn2)C1 | > 100 µM (inactive) | > 85.3 µM (inactive) | > 100 µM (inactive) | > 85.7 µM (inactive) | > 100 µM (inactive) | 23.6 µM (inactive) | 17.8 µM (inactive) | > 100 µM (inactive) | > 53 µM (inactive) | 40.9 µM (inactive) | 41.2 µM (inactive) | 44.8 µM (inactive) | 44.5 µM (inactive) | 44.1 µM (inactive) | 25.2 µM (inactive) | > 100 µM (inactive) | 29 µM (inactive) | > 67.9 µM (inactive) | > 100 µM (inactive) | > 100 µM (inactive) |
| COC(=O)[C@@H]1CN(C(C)=O)C(=O)N1C(=O)OCc1ccccc1 | > 100 µM (inactive) | > 100 µM (inactive) | > 100 µM (inactive) | > 100 µM (inactive) | > 100 µM (inactive) | > 100 µM (inactive) | > 100 µM (inactive) | > 100 µM (inactive) | > 100 µM (inactive) | > 100 µM (inactive) | > 100 µM (inactive) | > 100 µM (inactive) | > 100 µM (inactive) | > 100 µM (inactive) | > 100 µM (inactive) | > 100 µM (inactive) | > 100 µM (inactive) | > 100 µM (inactive) | > 100 µM (inactive) | > 100 µM (inactive) |
| O=C1C2SC34c5c2c2ccccc2n5CCC3CCCN14 (stereo not given) | > 100 µM (inactive) | > 100 µM (inactive) | > 100 µM (inactive) | 31.8 µM (inactive) | 80.7 µM (inactive) | > 100 µM (inactive) | > 100 µM (inactive) | > 100 µM (inactive) | > 100 µM (inactive) | 37.5 µM (inactive) | > 100 µM (inactive) | > 100 µM (inactive) | > 100 µM (inactive) | 74.6 µM (inactive) | > 100 µM (inactive) | > 100 µM (inactive) | > 100 µM (inactive) | 62.4 µM (inactive) | > 100 µM (inactive) | 25.9 µM (inactive) |
| C/C(=N\Nc1nc2ccccc2s1)c1cc(C)ncn1 | 2.25 µM (inactive) | 0.269 µM (active) | 0.0776 µM (active) | 1.34 µM (inactive) | 0.824 µM (active) | 0.129 µM (active) | 0.499 µM (active) | 0.104 µM (active) | 0.371 µM (active) | 1.7 µM (inactive) | 1.27 µM (inactive) | 1.38 µM (inactive) | 3.09 µM (inactive) | 3.78 µM (inactive) | 0.459 µM (active) | 1.28 µM (inactive) | 0.392 µM (active) | 6.68 µM (inactive) | 0.259 µM (active) | 15.3 µM (inactive) |
| N#C/C(C(=O)NCc1ccccc1)=C(/N)N1CCCC1 | > 100 µM (inactive) | > 100 µM (inactive) | > 100 µM (inactive) | > 100 µM (inactive) | > 100 µM (inactive) | > 100 µM (inactive) | > 100 µM (inactive) | > 100 µM (inactive) | > 100 µM (inactive) | > 100 µM (inactive) | > 100 µM (inactive) | > 100 µM (inactive) | > 100 µM (inactive) | > 100 µM (inactive) | > 100 µM (inactive) | > 100 µM (inactive) | > 100 µM (inactive) | > 100 µM (inactive) | > 100 µM (inactive) | > 100 µM (inactive) |
| NCC(=O)C(O)C(O)C(O)CO (stereo not given) | > 100 µM (inactive) | > 100 µM (inactive) | > 100 µM (inactive) | > 100 µM (inactive) | > 100 µM (inactive) | > 100 µM (inactive) | > 100 µM (inactive) | > 100 µM (inactive) | > 100 µM (inactive) | > 100 µM (inactive) | > 100 µM (inactive) | > 100 µM (inactive) | > 100 µM (inactive) | > 100 µM (inactive) | > 100 µM (inactive) | > 100 µM (inactive) | > 100 µM (inactive) | > 100 µM (inactive) | > 100 µM (inactive) | > 100 µM (inactive) |
| Nc1ccc(/N=N\c2ccc(-c3ccc(O)cc3)cc2)c2ccc(S(=O)(=O)O)cc12 | > 100 µM (inactive) | > 100 µM (inactive) | > 100 µM (inactive) | > 100 µM (inactive) | > 100 µM (inactive) | > 100 µM (inactive) | > 100 µM (inactive) | > 100 µM (inactive) | > 100 µM (inactive) | > 100 µM (inactive) | > 100 µM (inactive) | > 100 µM (inactive) | > 100 µM (inactive) | > 100 µM (inactive) | > 100 µM (inactive) | > 100 µM (inactive) | > 100 µM (inactive) | > 100 µM (inactive) | > 100 µM (inactive) | > 100 µM (inactive) |
| COc1cc2c(cc1OC)C(=O)/C(=C/c1ccccc1)CC2 | 27.7 µM (inactive) | 56.1 µM (inactive) | 0.0426 µM (active) | > 100 µM (inactive) | 38.9 µM (inactive) | 34.4 µM (inactive) | 32.7 µM (inactive) | 18.1 µM (inactive) | 17.3 µM (inactive) | 62.4 µM (inactive) | 27.4 µM (inactive) | 47.5 µM (inactive) | 64.9 µM (inactive) | 14.1 µM (inactive) | 17.1 µM (inactive) | 25.5 µM (inactive) | 43.7 µM (inactive) | 27.7 µM (inactive) | 13.5 µM (inactive) | 33.4 µM (inactive) |
| Nc1nc(Cl)c(Cl)c(NCC2(O)CCC2)n1 | 76.4 µM (inactive) | 22 µM (inactive) | 44 µM (inactive) | 92.3 µM (inactive) | 45.6 µM (inactive) | 24.7 µM (inactive) | 28.5 µM (inactive) | 33 µM (inactive) | 45 µM (inactive) | 19 µM (inactive) | > 100 µM (inactive) | > 100 µM (inactive) | > 100 µM (inactive) | > 100 µM (inactive) | 18.8 µM (inactive) | 39.3 µM (inactive) | > 100 µM (inactive) | > 100 µM (inactive) | 47.5 µM (inactive) | > 100 µM (inactive) |
| CCCCCCC(CCl)c1sc(-c2csc(CCNC(=O)OC(C)(C)C)n2)nc1C(=O)OC (stereo not given) | 26.4 µM (inactive) | 26.6 µM (inactive) | 17.3 µM (inactive) | 39.8 µM (inactive) | 30.2 µM (inactive) | 13.5 µM (inactive) | 13.2 µM (inactive) | 4.58 µM (inactive) | 2.32 µM (inactive) | 9.98 µM (inactive) | 32.1 µM (inactive) | 21.4 µM (inactive) | 28.6 µM (inactive) | 11.7 µM (inactive) | 4.37 µM (inactive) | 19.1 µM (inactive) | 19.2 µM (inactive) | 40.6 µM (inactive) | 3.94 µM (inactive) | 20.4 µM (inactive) |
| Nc1nc(-c2ccccc2)c(CC(=O)O)s1 | > 100 µM (inactive) | > 100 µM (inactive) | 20 µM (inactive) | > 100 µM (inactive) | > 100 µM (inactive) | > 100 µM (inactive) | > 100 µM (inactive) | > 100 µM (inactive) | > 100 µM (inactive) | > 100 µM (inactive) | > 100 µM (inactive) | > 100 µM (inactive) | > 100 µM (inactive) | > 100 µM (inactive) | > 100 µM (inactive) | > 100 µM (inactive) | > 100 µM (inactive) | > 100 µM (inactive) | > 100 µM (inactive) | > 100 µM (inactive) |
| Cc1c(C)c(S(=O)(=O)N(CCCCCN)OCCCN)c(C)c2c1OC(C)(C)CC2 | 16 µM (inactive) | 11.4 µM (inactive) | 2.19 µM (inactive) | 8.05 µM (inactive) | 2.82 µM (inactive) | 5.07 µM (inactive) | 5.4 µM (inactive) | 3.76 µM (inactive) | 20.6 µM (inactive) | 3.96 µM (inactive) | 24.8 µM (inactive) | > 25.3 µM (inactive) | 18.9 µM (inactive) | 4.75 µM (inactive) | 14.2 µM (inactive) | 13.4 µM (inactive) | 16.6 µM (inactive) | 7.91 µM (inactive) | 1.61 µM (inactive) | 16.2 µM (inactive) |
| C=C1c2nc3ccccc3n2C=C(c2ccc(C)cc2)N1c1ccc(C)cc1 | 52.6 µM (inactive) | 46.6 µM (inactive) | 10.5 µM (inactive) | > 100 µM (inactive) | > 67.1 µM (inactive) | 19.9 µM (inactive) | 34.8 µM (inactive) | 31.6 µM (inactive) | 17.9 µM (inactive) | 69.5 µM (inactive) | > 100 µM (inactive) | > 48.1 µM (inactive) | > 100 µM (inactive) | 47.5 µM (inactive) | 19.8 µM (inactive) | > 100 µM (inactive) | > 100 µM (inactive) | > 100 µM (inactive) | 11.5 µM (inactive) | > 100 µM (inactive) |
| NS(=O)(=O)c1ccc(NC(=O)Nc2ccccc2F)cc1 | > 100 µM (inactive) | > 100 µM (inactive) | > 100 µM (inactive) | > 100 µM (inactive) | > 100 µM (inactive) | > 100 µM (inactive) | > 100 µM (inactive) | > 100 µM (inactive) | > 100 µM (inactive) | > 100 µM (inactive) | > 100 µM (inactive) | > 100 µM (inactive) | > 100 µM (inactive) | > 100 µM (inactive) | > 100 µM (inactive) | > 100 µM (inactive) | > 100 µM (inactive) | > 100 µM (inactive) | > 100 µM (inactive) | > 100 µM (inactive) |
